Drawing on patent publication US20250059166A1, “PIPERIDINYLPYRIDINYLCARBONITRILE DERIVATIVES AS INHIBITORS OF GLUTAMINYL-PEPTIDE CYCLOTRANSFERASE AND GLUTAMINYL-PEPTIDE CYCLOTRANSFERASE LIKE PROTEIN” (Boehringer Ingelheim International GmbH, priority 2023, published 2025), this text covers IC50, efflux ratio and Papp A→B for 20 compounds.

The target in one data set is T1, QPCTL (Homo sapiens, UniProt Q9NXS2).
T1 construct: made in house
Kind of data set: Assay A: biochemical QPCTL activity assay (MALDI-TOF MS, CD47 peptide substrate). Particulars: compounds of the invention; 0.5 nM enzyme, 10 μM CD47 peptide substrate; read-out: Inhibition of QPCTL: IC50. The procedure: (§1) QPCT or QPCTL dependent conversion of N-terminal glutamine to pyroglutamate of CD47 was monitored via MALDI-TOF MS. Test compounds were dissolved in 100% DMSO and serially diluted into clear 1,536-well microtiter plates. Enzymatic reactions were set up in assay buffer containing 20 mM Tris pH 7.5, 0.1 mM TCEP, 0.01% BSA, and 0.001% Tween20. […] The plates were incubated for 10 min in a humidified incubator at 24° C. Subsequently, 2.5 μL of CD47 peptide substrate surrogate (^19[…]^33) was added to each well (final concentration: 10 μM for QPCTL/20 μM for QPCT). The plates were mixed for 30 sec at 1,000 rpm and subsequently incubated for 40 min in a humidified incubator at 24° C. […] The plates were sealed with an adhesive foil, mixed for 30 s at 1,000 rpm and stored at room temperature until preparation of the MALDI target plates. […] QPCT or QPCTL activity was monitored by calculating the ratio between product and internal standard signals followed by normalization to high (100% activity) and low (0% activity) controls. Determination of compound potencies was obtained by fitting the dose-response data to a four-parameter logistical equation.

The next data set has as its target T2, QPCT (Homo sapiens, UniProt Q16769).
T2 construct: purchased Origine (so in the source)
Description: Assay A: biochemical QPCT activity assay (MALDI-TOF MS, CD47 peptide substrate). Particulars: compounds of the invention; 0.5 nM enzyme, 20 μM CD47 peptide substrate; read-out: Inhibition of QPCT: IC50. The procedure: as §1

The subject of data set [1] is SIRPα signalling induced by Raji cells. Description: Assay B: SIRPα signalling assay using Raji cells. In kind it is cell-based. Particulars: Homo sapiens; compounds of the invention; Raji cells 48 h, Jurkat PathHunter SIRPαV1 reporter cells 5 h; read-out: Inhibition of SIRPα signalling induced by Raji cells: IC50. The procedure:
(§2) Two cell types are independently used: the Raji cell line (lymphoblast-like human cell line derived from B lymphocytes from a Burkitt's lymphoma patient in 1963) and A549 cells (adenocarcinoma human alveolar basal epithelial cells).
(§3) Test compounds were dissolved in 100% DMSO and serially diluted into a white 384-well microtiter cell culture plate (PerkinElmer #60076780 in case of Raji assay; PDL-coated plates Greiner #781945 in case of A549 assay). 5000 Raji cells (ATCC #CC86) or 5000 A549 cells (ATCC #CCL-185) in Assay Complete Cell Plating reagent 30 (DiscoverX 93-0563R30B) were added per well. The assay plate was incubated for 48 h at 37° C., 95% humidity and 5% CO2. 15000 reporter cells (Jurkat PathHunter SIRPαV1, DiscoverX #93-1135C19) were added to each well, and the plate was incubated for 5 h at 37° C., 95% humidity and 5% CO2. Bioassay reagent 1 of the PathHunter Bioassay detection kit (DiscoverX 93-0001) was added to each well of the plate using a multichannel pipette followed by a 15 min incubation at room temperature. Afterwards bioassay reagent 2 was added followed by 60 min incubation at room temperature (incubation in the dark).
(§4) The analysis of the data was performed using the luminescence signal generated by beta-galactosidase in the PathHunter reporter cell line. The luminescence measurement was done using a Pherastar Multi-Mode Reader. Dose-response curves & IC50 data were calculated with 4-parameter sigmoidal dose response formula.

Data set [2] relates to SIRPα signalling induced by A549 cells. Description: Assay B: SIRPα signalling assay using A549 cells. In kind it is cell-based. Particulars: Homo sapiens; compounds of the invention; A549 cells 48 h, Jurkat PathHunter SIRPαV1 reporter cells 5 h; read-out: Inhibition of SIRPα signalling induced by A549 cells: IC50. The protocol:
as §2, §3, §4

Data set [3] can be described thus: Assay C: permeability in CACO-2 cells. In kind it is in vitro ADME. Particulars: human, pH 7.2, compounds of the invention; for efflux ratio at 2 h: Caco-2, permeability B-A / permeability A-B; for Papp A→B at 2 h: Caco-2, apical to basolateral. The procedure: Caco-2 cells (1-2×10^5 cells/1 cm^2 area) are seeded on filter inserts (Costar transwell polycarbonate or PET filters, 0.4 μm pore size) and cultured (DMEM) for 10 to 25 days. Compounds are dissolved in appropriate solvent (like DMSO, 1-20 mM stock solutions). […] The transport solution (TL) is applied to the apical or basolateral donor side for measuring A-B or B-A permeability (3 filter replicates), respectively. Samples are collected at the start and end of experiment from the donor and at various time intervals for up to 2 hours also from the receiver side for concentration measurement by HPLC-MS/MS or scintillation counting. Sampled receiver volumes are replaced with fresh receiver solution.
Efflux ratio(ER)=permeabilityB−A/permeabilityA−B

T2 sequence (Q16769 29-361): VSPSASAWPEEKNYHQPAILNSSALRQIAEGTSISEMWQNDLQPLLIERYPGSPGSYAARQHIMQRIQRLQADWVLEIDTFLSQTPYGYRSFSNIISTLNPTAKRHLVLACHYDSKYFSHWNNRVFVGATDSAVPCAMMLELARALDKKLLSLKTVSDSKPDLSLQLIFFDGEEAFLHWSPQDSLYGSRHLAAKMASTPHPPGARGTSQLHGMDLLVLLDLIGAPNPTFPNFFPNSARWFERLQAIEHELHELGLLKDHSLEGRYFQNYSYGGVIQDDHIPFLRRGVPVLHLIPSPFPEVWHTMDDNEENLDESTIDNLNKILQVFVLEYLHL
T1 sequence (Q9NXS2 whole entry): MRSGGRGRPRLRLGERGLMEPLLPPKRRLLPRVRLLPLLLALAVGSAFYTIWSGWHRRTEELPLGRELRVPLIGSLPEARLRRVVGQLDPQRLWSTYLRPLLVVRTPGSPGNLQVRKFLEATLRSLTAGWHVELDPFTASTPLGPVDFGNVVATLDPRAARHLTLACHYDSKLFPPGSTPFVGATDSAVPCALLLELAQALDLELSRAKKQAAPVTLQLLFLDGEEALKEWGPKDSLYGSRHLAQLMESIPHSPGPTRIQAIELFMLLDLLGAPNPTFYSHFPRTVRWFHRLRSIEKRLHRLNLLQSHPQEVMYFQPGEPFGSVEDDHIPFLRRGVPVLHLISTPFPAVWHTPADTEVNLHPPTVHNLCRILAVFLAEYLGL

In the case of `Cn1cnnc1C1(F)CCN(c2c(C#N)ccnc2-c2cnc3nn(C(C)(C)C)nc3c2)CC1` [Example 17], the IC50 on QPCTL was 2 nM; at QPCT, 2 nM; in data set [1], 102 nM; in data set [2], 40 nM. The efflux ratio at 2 h in data set [3] worked out at 13.9. The compound also yielded a Papp A→B at 2 h in data set [3] of 7.2 ×10⁻⁶ cm/s.
For `Cn1cnnc1C1(F)CCN(c2c(C#N)ccnc2-c2cnc3nn(C(F)(F)F)nc3c2)CC1` [Example 18], the IC50 on QPCTL amounted to 33 nM; on QPCT, 52 nM; in data set [1], 942 nM; in data set [2] it was 292 nM. The efflux ratio at 2 h in data set [3] was determined as 2.8. In addition, the Papp A→B at 2 h in data set [3] was 27 ×10⁻⁶ cm/s.
In the case of `Cn1cnnc1C1(F)CCN(c2c(C#N)ccnc2-c2cccnc2)CC1` [Example 19], the IC50 on QPCTL came out at 18 nM; on QPCT, 62 nM; in data set [1] it was 2190 nM; in data set [2], 410 nM. Further, in data set [3], the efflux ratio at 2 h came out at 2.6. The same compound returned a Papp A→B at 2 h in data set [3] of 11 ×10⁻⁶ cm/s.
Consider `Cc1cncc(-c2nccc(C#N)c2N2CCC(F)(c3nncn3C)CC2)c1` [Example 20], for which the IC50 on QPCTL is 13 nM; on QPCT, 35 nM; in data set [1] it was 1370 nM; in data set [2], 615 nM. The efflux ratio at 2 h in data set [3] turned out to be 4.5. In addition, in data set [3], the apparent permeability from apical to basolateral (Papp A→B) at 2 h was determined as 14 ×10⁻⁶ cm/s.
On to `Cc1cc(F)ncc1-c1nccc(C#N)c1N1CCC(F)(c2nncn2C)CC1` [Example 21], for which the IC50 at QPCTL amounted to 1 nM; on QPCT, 6 nM; in data set [1], 187 nM; in data set [2], 115 nM. In addition, in data set [3], the efflux ratio at 2 h is 2.4. Moreover, the apical-to-basolateral permeability (Papp A→B) at 2 h in data set [3] came out at 18 ×10⁻⁶ cm/s.
For the compound `Cn1cnnc1C1(F)CCN(c2c(C#N)ccnc2-c2cnc(F)cc2Cl)CC1` [Example 22], the IC50 on QPCTL worked out at 5 nM; on QPCT, 15 nM; in data set [1], 435 nM; in data set [2], 218 nM. In data set [3], the efflux ratio at 2 h was found to be 1.6. The same compound showed a Papp A→B at 2 h in data set [3] of 34 ×10⁻⁶ cm/s.
`Cn1cnnc1C1(F)CCN(c2c(C#N)ccnc2-n2cnc3nc(C(F)(F)F)ccc32)CC1` [Example 24]: the IC50 at QPCTL came to 7 nM; on QPCT, 11 nM; in data set [1], 321 nM; in data set [2], 349 nM. The efflux ratio at 2 h in data set [3] was 14.1. In data set [3], this compound had a Papp A→B at 2 h of 1 ×10⁻⁶ cm/s.
As to `Cc1cc(C#N)c(N2CCC(F)(c3nncn3C)CC2)c(-c2cnc3nn(C(C)(C)C)c(F)c3c2)n1` [Example 25], the IC50 came to 1 nM at QPCTL, 1 nM at QPCT, 9 nM in data set [1] and 7 nM in data set [2]. For the same compound, in data set [3], the efflux ratio at 2 h was found to be 9.9. Further, the apical-to-basolateral permeability (Papp A→B) at 2 h in data set [3] stood at 7.6 ×10⁻⁶ cm/s.
Take `Cc1cc(C#N)c(N2CCC(F)(c3nncn3C)CC2)c(-c2cnc3nn(C(C)(C)C)c(Cl)c3c2)n1` [Example 26]: the half-maximal inhibitory concentration (IC50) was under 1 nM on QPCTL, under 1 nM at QPCT, 6 nM in data set [1] and 13 nM in data set [2]. Also, the efflux ratio at 2 h in data set [3] is 4.2. In data set [3], the Papp A→B at 2 h stood at 20 ×10⁻⁶ cm/s.
`Cc1cc(C#N)c(N2CCC(F)(c3nncn3C)CC2)c(-c2cnc3nn(C(C)(C)C)c(C(F)(F)F)c3c2)n1` [Example 27]: the IC50 worked out at 2 nM on QPCTL, 2 nM at QPCT, 26 nM in data set [1] and 34 nM in data set [2]. Also, in data set [3], the efflux ratio at 2 h came to 2.4. This compound also displayed an apical-to-basolateral permeability (Papp A→B) at 2 h in data set [3] of 38 ×10⁻⁶ cm/s.
With `Cn1cnnc1C1(F)CCN(c2c(C#N)cc(C3CC3)nc2-c2cnc3nn(C(C)(C)C)cc3c2)CC1` [Example 28], the IC50 at QPCTL is 1 nM; on QPCT, under 1 nM; in data set [1], 7 nM; in data set [2], 12 nM. In addition, in data set [3], the efflux ratio at 2 h is 3.8. Also, the Papp A→B at 2 h in data set [3] was 19 ×10⁻⁶ cm/s.
Take `Cn1cnnc1C1(F)CCN(c2c(C#N)cc(C3CC3)nc2-c2cnc3nn(C(C)(C)C)c(F)c3c2)CC1` [Example 29]: the IC50 on QPCTL stood at 1 nM; on QPCT, 1 nM; in data set [1] it was 17 nM; in data set [2] it was 45 nM. In addition, the efflux ratio at 2 h in data set [3] came out at 2.7. This compound also displayed a Papp A→B at 2 h in data set [3] of 29 ×10⁻⁶ cm/s.
In the case of `CC(C)n1nc2ncc(-c3nc(C4CC4)cc(C#N)c3N3CCC(F)(c4nncn4C)CC3)cc2c1F` [Example 30], the 50% inhibitory concentration (IC50) on QPCTL was determined as 1 nM; at QPCT it was 1 nM; in data set [1] it was 25 nM; in data set [2], 20 nM. In data set [3], the efflux ratio at 2 h was 9.4. Further, in data set [3], the Papp A→B at 2 h stood at 9.4 ×10⁻⁶ cm/s.
As to `Cn1cnnc1C1(F)CCN(c2c(C#N)cc(C3CC3)nc2-c2ccc(F)nc2)CC1` [Example 31], the IC50 came out at 2 nM at QPCTL, 4 nM on QPCT, 87 nM in data set [1] and 41 nM in data set [2]. For the same compound, the efflux ratio at 2 h in data set [3] worked out at 1.4. The compound further displayed an apical-to-basolateral permeability (Papp A→B) at 2 h in data set [3] of 62 ×10⁻⁶ cm/s.
Turning to `Cn1cnnc1C1(F)CCN(c2c(C#N)cc(C(C)(F)F)nc2-c2cnc3nn(C(C)(C)C)cc3c2)CC1` [Example 32], the IC50 on QPCTL stood at 1 nM; on QPCT, 1 nM; in data set [1], 4 nM; in data set [2] it was 21 nM. The efflux ratio at 2 h in data set [3] was 8.2. This compound also showed a Papp A→B at 2 h in data set [3] of 8.2 ×10⁻⁶ cm/s.
As to `Cn1cnnc1C1(F)CCN(c2c(C#N)cc(C(C)(F)F)nc2-c2cnc3nn(C(C)(C)C)c(F)c3c2)CC1` [Example 33], the IC50 was found to be 1 nM on QPCTL, 1 nM at QPCT, 13 nM in data set [1] and 26 nM in data set [2]. Moreover, the efflux ratio at 2 h in data set [3] came to 2.2. Further, in data set [3], the apparent permeability from apical to basolateral (Papp A→B) at 2 h is 31 ×10⁻⁶ cm/s.
As to `Cn1cnnc1C1(F)CCN(c2c(C#N)cc(C(C)(F)F)nc2-c2ccc(F)nc2)CC1` [Example 34], the IC50 is 2 nM at QPCTL, 6 nM at QPCT, 37 nM in data set [1] and 20 nM in data set [2]. Further, in data set [3], the efflux ratio at 2 h came to 1.7. In data set [3], this compound came in with a Papp A→B at 2 h of 23 ×10⁻⁶ cm/s.
For `Cn1cnnc1C1(F)CCN(c2c(C#N)cc(C(F)F)nc2-c2ccc(F)nc2)CC1` [Example 35], the IC50 on QPCTL was 3 nM; at QPCT, 10 nM; in data set [1], 154 nM; in data set [2] it was 43 nM. Further, in data set [3], the efflux ratio at 2 h stood at 3.6. The compound further returned a Papp A→B at 2 h in data set [3] of 17 ×10⁻⁶ cm/s.
Consider `Cn1cnnc1C1(F)CCN(c2c(C#N)cc(Cl)nc2-c2cnc3nn(C(C)(C)C)cc3c2)CC1` [Example 36], for which the IC50 was 1 nM on QPCTL, under 1 nM at QPCT, 9 nM in data set [1] and 13 nM in data set [2]. Moreover, in data set [3], the efflux ratio at 2 h stood at 13.3. In addition, the Papp A→B at 2 h in data set [3] was 5.8 ×10⁻⁶ cm/s.
Regarding `Cn1cnnc1C1(F)CCN(c2c(C#N)cc(Cl)nc2-c2ccc(F)nc2)CC1` [Example 37], the IC50 on QPCTL came out at 2 nM; at QPCT, 6 nM; in data set [1], 95 nM; in data set [2] it was 35 nM. Also, in data set [3], the efflux ratio at 2 h is 2.2. In data set [3], this compound showed an apical-to-basolateral permeability (Papp A→B) at 2 h of 23 ×10⁻⁶ cm/s.
